Reference: the Deep4Chem optical property database
“And” between values parts separate entries of the source, which are not always exact repeats. Equal entries are not always repeated.

Assay: solvent given as SMILES

Compound	absorption maximum (in ClCCl)	absorption maximum (in CC#N) [nm]	absorption maximum (in Cc1ccccc1) [nm]	also measured
F[B-]1(F)n2c(Nc3cccc4cccnc34)ccc2C(c2ccccc2)=C2C=CC(Cl)=[N+]21	–	547	561	absorption maximum (in C1CCCCC1): 560 nm; absorption maximum (in ClC(Cl)Cl): 555 nm
CCCCC(CC)CN1C(=O)C2=C(c3ccc(-c4ccc(C5=C6C(C)=CC(C)=[N+]6[B-](F)(F)n6c(C)cc(C)c65)cc4)s3)N(CC(CC)CCCC)C(=O)C2=C1c1cccs1 (stereo not drawn)	–	–	580	–
CN(C)c1ccc(/C=C/C=C/c2ccc(C#N)cc2)cc1	–	402	–	absorption maximum (in CCCC#N): 410 nm; absorption maximum (in CCCCCC): 400 nm; absorption maximum (in CCOCC): 400 nm
CCCC1=Cc2nc1ccc1[nH]c(cc1CCC)c1nc(c(O)cc3[nH]c2cc3CCC)C(CCC)=C1	–	–	677	–
CC1(C)c2ccccc2N(c2ccc(-c3ncccn3)cc2)c2ccccc21	–	–	359	–
CCc1c(C)[nH]c(C2=[N+]3C(=C(C)c4c(C)c(CC)c(C)n4[B-]3(F)F)c3ccccc32)c1C	619 nm	610	625	absorption maximum (in C1CCOC1): 618 nm; absorption maximum (in CCCCCC): 620 nm; absorption maximum (in CO): 613 nm
CC(C)(C)OC(=O)NCC(=O)OCc1ccc2c3cccc4cccc(c5cccc1c52)c43	–	–	–	absorption maximum (in CCO): 439 nm
O=C(O)c1ccc2ccc3cccc4ccc1c2c34	382 nm	379	382	absorption maximum (in C1CCOC1): 379 nm; absorption maximum (in CCCCCC): 381 nm; absorption maximum (in CCO): 340 nm; absorption maximum (in CN(C)C=O): 377 nm; absorption maximum (in CO): 339 nm
CN1C(=CC2=C([O-])C(=Cc3oc4ccccc4[n+]3C)C2=C(C#N)C#N)C(C)(C)c2ccccc21	–	–	–	absorption maximum (in ClC(Cl)Cl): 655 nm
CCCCCCCN1C(=CC2=C([O-])C(=CC3=[N+](CCCCCCC)c4ccccc4C3(C)C)C2=C(C#N)C#N)C(C)(C)c2ccccc21	–	–	–	absorption maximum (in C1COCCO1): 689 nm; absorption maximum (in CCO): 673 nm; absorption maximum (in CN(C)C=O): 681 nm; absorption maximum (in ClC(Cl)Cl): 685 nm
CCOC(=O)CN1C(=O)C2=C(c3ccc(N4CCCCC4)cc3)N(CC(=O)OCC)C(=O)C2=C1c1ccc(N2CCCCC2)cc1	–	523	520	absorption maximum (in CS(C)=O): 540 nm
N#CC1=CC=CC(C#N)=P1(c1ccccc1)c1ccccc1	–	–	–	absorption maximum (in ClC(Cl)Cl): 458 nm
c1cc2ccc3ccc4cc3c2cc1c1ccc2ccc3ccc(cc3c2c1)c1ccc2c(c1)c1cc4ccc1[C@]13OCCO[C@]21OCCO3	–	–	366	–
Clc1ccc(-c2nc3ccccc3n2-c2ccccc2)cc1	–	295	–	–
c1ccc(-c2nc(-c3ccccc3)nc(-c3ccc(-n4c5ccc(-c6ccc7sc8ccccc8c7c6)cc5c5cc(-c6ccc7sc8ccccc8c7c6)ccc54)cc3)n2)cc1	–	–	377	–
C(=N\c1ccc(-c2cn3nc(-c4cccs4)sc3n2)cc1)/c1ccc2ccc3cccc4ccc1c2c34	–	–	–	absorption maximum (in ClC(Cl)Cl): 403 nm
CCOC(=O)COc1ccc(/C=C/C2=C3c4ccccc4C(c4ccc[nH]4)=[N+]3[B-](F)(F)n3ccc(C)c32)cc1	585 nm	577	592	absorption maximum (in C1CCOC1): 586 nm; absorption maximum (in CCCCCC): 587 nm; absorption maximum (in CO): 580 nm
CCC1=C(C)C2=C(c3cc(C4=C5C(C)=C(CC)C(C)=[N+]5[B-](F)(F)n5c(C)c(CC)c(C)c54)cc(C4=C5C(C)=C(CC)C(C)=[N+]5[B-](F)(F)n5c(C)c(CC)c(C)c54)c3)c3c(C)c(CC)c(C)n3[B-](F)(F)[N+]2=C1C	–	531	537	absorption maximum (in C1CCOC1): 534 nm; absorption maximum (in CN(C)C=O): 539 nm; absorption maximum (in ClC(Cl)Cl): 538 nm
COc1ccccc1C1=C2C(C)=CC(C)=[N+]2[B-](F)(F)n2c(C)cc(C)c21	–	499	–	absorption maximum (in C1CCOC1): 503 nm; absorption maximum (in CC(=O)C(C)(C)C): 502 nm; absorption maximum (in CC(C)=O): 501 nm; absorption maximum (in CCCCCC): 504 nm; absorption maximum (in CCOC(C)=O): 502 nm; absorption maximum (in CO): 500 nm
F[B-]1(F)n2c(-c3cccs3)cc(-c3cccs3)c2N=C2C(c3cccs3)=CC(c3cccs3)=[N+]21	740 nm and 742 nm	733	743	absorption maximum (in C1CCOC1): 740 nm; absorption maximum (in CS(C)=O): 752 nm
Cc1cc(C)n2c1C=C1c3ccccc3C(c3c[nH]c4ccccc34)=[N+]1[B-]2(F)F	581 nm	575	587	absorption maximum (in C1CCOC1): 583 nm; absorption maximum (in CCCCCC): 580 nm; absorption maximum (in CO): 579 nm
CC(C)(C)c1ccc(C2=CC3=C(c4ccccc4)c4cc(-c5ccc(C(C)(C)C)cc5)c(-c5ccc(C(C)(C)C)cc5)n4[B-](F)(F)[N+]3=C2c2ccc(C(C)(C)C)cc2)cc1	598 nm	590	605	absorption maximum (in C1CCCCC1): 602 nm; absorption maximum (in C1CCOC1): 601 nm
COc1ccc(/C=C/C2=CC(/C=C/c3ccc(OC)c4ccccc34)=[O+][B-](F)(F)O2)c2ccccc12	536 nm	530	–	absorption maximum (in CC(C)=O): 532 nm; absorption maximum (in CCOC(C)=O): 524 nm; absorption maximum (in CCOCC): 516 nm; absorption maximum (in ClC(Cl)(Cl)Cl): 523 nm
c1ccc(-c2nc(-c3ccc(-c4nc(-c5ccccc5)c(-c5ccccc5)o4)cc3)oc2-c2ccccc2)cc1	–	–	–	absorption maximum (in C1COCCO1): 358 nm
C(=C\c1ccc(-c2nnc(-c3ccc(/C=C/c4ccc(-c5nc(-c6ccccc6)c(-c6ccccc6)[nH]5)cc4)cc3)o2)cc1)/c1ccc(-c2nc(-c3ccccc3)c(-c3ccccc3)[nH]2)cc1	–	391	397	absorption maximum (in C1CCOC1): 396 nm; absorption maximum (in CN(C)C=O): 397 nm

More lines, main results first:

absorption maximum (in ClCCl)	Compound	absorption maximum (in CC#N) [nm]	absorption maximum (in Cc1ccccc1) [nm]	also measured
634 nm	COc1ccc(C2=C3C(/C=C/c4cc(OC)c(OC)c(OC)c4)=C(C=O)C(C)=[N+]3[B-](F)(F)n3c(/C=C/c4cc(OC)c(OC)c(OC)c4)c(C=O)c(C=Cc4cc(OC)c(OC)c(OC)c4)c32)cc1	–	–	–
385 nm	COc1ccc(-c2ccc3c(c2)[Si](C)(C)c2cc(-c4ccc(OC)cc4)ccc2C=C3)cc1	–	–	–
328 nm	C(=C\c1ccc(-c2ccccc2)cc1)/c1ccc(Oc2ccc3ccccc3c2-c2c(Oc3ccc(/C=C/c4ccc(-c5ccccc5)cc4)cc3)ccc3ccccc23)cc1	–	–	–
611 nm	CC1=c2ccccc2=[N+]2C1=Cc1c3ccccc3c(-c3[nH]c4ccccc4c3C)n1[B-]2(F)F	–	–	–
378 nm	COc1cn2cc(-c3ccc(C#N)cc3)[n-][n+]2c1	–	–	–
349 nm	CCCCn1c2ccc(C#N)cc2c2cc(C#N)ccc21	–	–	–
322 nm	c1ccc(N(c2ccccc2)c2ccc(-n3ccc4cc(-c5cccc6c5-c5ccccc5C6(c5ccccc5)c5ccccc5)ccc43)cc2)cc1	–	–	–
655 nm	COc1ccc(C#Cc2c3cc4ccccc4cc3c(C#C[Si](C(C)C)(C(C)C)C(C)C)c3cc4ccccc4cc23)cc1	–	–	–
453 nm	CN(C)c1ccc(/C=C/c2nc3ccc(Br)cc3nc2-c2ccccc2)cc1	448	–	absorption maximum (in C1COCCO1): 445 nm
413 nm	CN(C)c1ccc(C2=Cc3ccccc3P2(=O)c2ccccc2)cc1 (stereo not drawn)	–	–	–
448 nm	CC(=O)c1cc(=O)n(C)c2cc(-c3ccc(N(C)C)cc3)sc12	440	–	–
